These are literature values, as cited in US20190046552A1, “COMPOSITIONS AND METHODS FOR THE TREATMENT OF HCV INFECTION” (priority 2015, published 2019).

The subject of this series is panel of cell lines. As to conditions: read-out: 50% cytotoxic concentration (CC50), Coughlin et al. 2010; cited from earlier work.

On to `CO[C@H]1C(OP(=O)(OC[C@H]2O[C@@H](n3cnc4c(N)ncnc43)CC2O)SCOC(=O)OC(C)C)[C@@H](CO)O[C@H]1n1ccc(=O)[nH]c1=O` (stereo partly shown) [Formula (II)], for which the CC50 is over 1000 µM.
